Data taken from patent US12655116B2, “Substituted isophthalic acid diamides” (Bayer Aktiengesellschaft, priority 2020, dated 2026).

Key:
[1] = test system: ABUTH; assay: Pre-emergence herbicidal action against ABUTH; type: in vivo, Abutilon theophrasti
Summary of the method: (§1)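 Seeds sown in sandy loam, soil-covered; compound sprayed on soil surface pre-emergence. Application: WP/EC, 600–800 l/ha, 0.2% wetting agent. Readout: visual % damage at 3 weeks.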

[2] = test system: ALOMY; assay: Pre-emergence herbicidal action against ALOMY; type: in vivo, Alopecurus myosuroides; conditions: 80 g/ha, pre-emergence, scored visually after 3 weeks vs untreated controls (100% = plants have died, 0% = like control plants)
Summary of the method: as §1

[3] = test system: AMARE; assay: Pre-emergence herbicidal action against AMARE; type: in vivo, Amaranthus retroflexus
Summary of the method: as §1

[4] = test system: AVEFA; assay: Pre-emergence herbicidal action against AVEFA; type: in vivo, Avena fatua; conditions: Avena fatua, 504 h; 80 g/ha, pre-emergence
Summary of the method: as §1

[5] = test system: ECHCG; assay: Pre-emergence herbicidal action against ECHCG; type: in vivo, Echinochloa crus-galli; conditions: 80 g/ha
Summary of the method: as §1

[6] = test system: MATIN; assay: Pre-emergence herbicidal action against MATIN; type: in vivo, Matricaria inodora
Summary of the method: as §1

[7] = test system: PHBPU; assay: Pre-emergence herbicidal action against PHBPU; type: in vivo, Pharbitis purpurea
Summary of the method: as §1

[8] = test system: POLCO; assay: Pre-emergence herbicidal action against POLCO; type: in vivo, Polygonum convolvulus; conditions: dosage 80 g/ha
Summary of the method: as §1

[9] = test system: SETVI; assay: Pre-emergence herbicidal action against SETVI; type: in vivo, Setaria viridis; conditions: dosage 80 g/ha
Summary of the method: as §1

[10] = test system: VERPE; assay: Pre-emergence herbicidal action against VERPE; type: in vivo, Veronica persica; conditions: Veronica persica, 504 h, dosage 80 g/ha
Summary of the method: as §1

[11] = test system: VIOTR; assay: Pre-emergence herbicidal action against VIOTR; type: in vivo, Viola tricolor
Summary of the method: as §1

[12] = test system: DIGSA; assay: Pre-emergence herbicidal action against DIGSA; type: in vivo, Digitaria sanguinalis
Summary of the method: as §1

[13] = test system: ABUTH; assay: Post-emergence herbicidal action against ABUTH; type: in vivo, Abutilon theophrasti; conditions: visual assessment about 3 weeks after treatment vs untreated controls
Summary of the method: (§2)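 Sandy loam, greenhouse; treatment 2–3 weeks after sowing, one-leaf stage. Aqueous suspension or emulsion from WP/EC sprayed on foliage (600–800 l/ha, 0.2% wetting agent). Readout: visual % action, ~3 weeks.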

[14] = test system: AMARE; assay: Post-emergence herbicidal action against AMARE; type: in vivo, Amaranthus retroflexus; conditions: 20 g/ha, visual assessment about 3 weeks after treatment, 100% = plants have died, 0% = like control plants
Summary of the method: as §2

[15] = test system: AVEFA; assay: Post-emergence herbicidal action against AVEFA; type: in vivo, Avena fatua; conditions: 20 g/ha, visual assessment about 3 weeks after treatment, 100% = plants have died, 0% = like control plants
Summary of the method: as §2

[16] = test system: ECHCG; assay: Post-emergence herbicidal action against ECHCG; type: in vivo, Echinochloa crus-galli
Summary of the method: as §2

[17] = test system: MATIN; assay: Post-emergence herbicidal action against MATIN; type: in vivo, Matricaria inodora
Summary of the method: as §2

[18] = test system: PHBPU; assay: Post-emergence herbicidal action against PHBPU; type: in vivo, Pharbitis purpurea
Summary of the method: as §2

[19] = test system: SETVI; assay: Post-emergence herbicidal action against SETVI; type: in vivo, Setaria viridis
Summary of the method: as §2

[20] = test system: VERPE; assay: Post-emergence herbicidal action against VERPE; type: in vivo, Veronica persica
Summary of the method: as §2

[21] = test system: VIOTR; assay: Post-emergence herbicidal action against VIOTR; type: in vivo, Viola tricolor
Summary of the method: as §2

[22] = test system: DIGSA; assay: Post-emergence herbicidal action against DIGSA; type: in vivo, Digitaria sanguinalis
Summary of the method: as §2

[23] = test system: ALOMY; assay: Post-emergence herbicidal action against ALOMY; type: in vivo, Alopecurus myosuroides; conditions: dosage 20 g/ha, visual assessment about 3 weeks after treatment vs untreated controls
Summary of the method: as §2

[24] = Tripleurospermum inodorum, 504 h, dosage 20 g/ha
[25] = Ipomoea purpurea, 504 h, dosage 20 g/ha
[26] = 80 g/ha, scored visually after 3 weeks vs untreated controls (100% = plants have died, 0% = like control plants)

CCc1c(C(=O)Nc2nnnn2C)ccc(C(F)F)c1C(=O)NC [Example 1-277] was tested, and the pest or weed control at 80 g/ha ([1]; Abutilon theophrasti, 504 h, 80 g/ha, scored visually after 3 weeks vs untreated controls (100% = plants have died, 0% = like control plants)) was 100%, the pest or weed control at 20 g/ha ([1]; Abutilon theophrasti, 504 h, dosage 20 g/ha, scored visually after 3 weeks vs untreated controls, 100% = plants have died, 0% = like control plants, read-out: Pre-emergence action against ABUTH (herbicidal activity in percent)) was 90% and the pest or weed control at 80 g/ha ([2]; Alopecurus myosuroides, 504 h) was 90%. The pest or weed control at 20 g/ha ([3]; Amaranthus retroflexus, 504 h, 20 g/ha, scored visually after 3 weeks vs untreated controls, 100% = plants have died, 0% = like control plants) was 100%, the pest or weed control at 80 g/ha ([3]; Amaranthus retroflexus, 504 h, 80 g/ha, scored visually after 3 weeks vs untreated controls, 100% = plants have died, 0% = like control plants) was 100% and the pest or weed control at 80 g/ha [4] was 90%. It also gave a pest or weed control at 80 g/ha ([5]; Echinochloa crus-galli, 504 h) of 90%, a pest or weed control at 20 g/ha [6, 24] of 90% and a pest or weed control at 80 g/ha ([6]; Tripleurospermum inodorum, 504 h, dosage 80 g/ha) of 100%. For the same compound, the pest or weed control at 20 g/ha [7, 25] was 80%, the pest or weed control at 80 g/ha ([7]; Ipomoea purpurea, 504 h, dosage 80 g/ha) was 90% and the pest or weed control at 80 g/ha ([8]; Fallopia convolvulus, 504 h) was 90%. For the same compound, the pest or weed control at 80 g/ha ([9]; Setaria viridis, 504 h) was 100%, the pest or weed control at 80 g/ha [10] was 90% and the pest or weed control at 20 g/ha ([11]; Viola tricolor, 504 h, dosage 20 g/ha) was 100%. It also gave a pest or weed control at 80 g/ha ([11]; Viola tricolor, 504 h, dosage 80 g/ha) of 100%, a pest or weed control at 20 g/ha ([12]; Digitaria sanguinalis, 504 h, dosage 20 g/ha) of 100% and a pest or weed control at 80 g/ha ([12]; Digitaria sanguinalis, 504 h, dosage 80 g/ha) of 100%. For the same compound, the pest or weed control at 5 g/ha ([13]; Abutilon theophrasti, 504 h, dosage 5 g/ha) was 90%, the pest or weed control at 20 g/ha ([13]; Abutilon theophrasti, 504 h, dosage 20 g/ha) was 90% and the pest or weed control at 20 g/ha ([14]; Amaranthus retroflexus, 504 h) was 100%. For the same compound, the pest or weed control at 20 g/ha ([15]; Avena fatua, 504 h) was 80%, the pest or weed control at 20 g/ha ([16]; Echinochloa crus-galli, 504 h, dosage 20 g/ha) was 90% and the pest or weed control at 5 g/ha ([17]; Tripleurospermum inodorum, 504 h, dosage 5 g/ha) was 90%. For the same compound, the pest or weed control at 20 g/ha [17, 24] was 90%, the pest or weed control at 5 g/ha ([18]; Ipomoea purpurea, 504 h, dosage 5 g/ha) was 90% and the pest or weed control at 20 g/ha [18, 25] was 90%. For the same compound, the pest or weed control at 5 g/ha ([19]; Setaria viridis, 504 h, dosage 5 g/ha) was 90%, the pest or weed control at 20 g/ha ([19]; Setaria viridis, 504 h, dosage 20 g/ha) was 90% and the pest or weed control at 5 g/ha ([20]; Veronica persica, 504 h, 5 g/ha) was 80%. The pest or weed control at 20 g/ha ([20]; Veronica persica, 504 h, 20 g/ha) was 90%, the pest or weed control at 5 g/ha ([21]; Viola tricolor, 504 h, 5 g/ha) was 80% and the pest or weed control at 20 g/ha ([21]; Viola tricolor, 504 h, 20 g/ha) was 90%. The pest or weed control at 5 g/ha ([22]; Digitaria sanguinalis, 504 h, 5 g/ha) was 90% and the pest or weed control at 20 g/ha ([22]; Digitaria sanguinalis, 504 h, 20 g/ha) was 90%.
Cn1nnnc1NC(=O)c1ccc(C(F)(F)F)c(C(=O)NCC(F)F)c1C1CC1 [Example 1-291] was tested, and the “Pre-emergence action against ABUTH (herbicidal activity)” value [1, 26] was 100%, the “Pre-emergence action against ABUTH (herbicidal activity in percent)” value ([1]; dosage 20 g/ha, scored visually after 3 weeks vs untreated controls, 100% = plants have died, 0% = like control plants) was 100% and the “Pre-emergence action against ALOMY (herbicidal activity)” value [2] was 80%. For the same compound, the “Pre-emergence action against AMARE in %” value ([3]; 20 g/ha, scored visually after 3 weeks vs untreated controls, 100% = plants have died, 0% = like control plants) was 100%, the “Pre-emergence action against AMARE in %” value [3, 26] was 100% and the “Pre-emergence action against ECHCG in %” value [5] was 90%. For the same compound, the “Pre-emergence action against MATIN in %” value ([6]; dosage 20 g/ha) was 90%, the “Pre-emergence action against MATIN in %” value ([6]; dosage 80 g/ha) was 100% and the “Pre-emergence action against PHBPU in %” value ([7]; dosage 80 g/ha) was 80%. For the same compound, the “Pre-emergence action against POLCO in %” value [8] was 80%, the “Pre-emergence action against SETVI in %” value [9] was 100% and the “Pre-emergence action against VIOTR in %” value ([11]; dosage 20 g/ha) was 100%. The “Pre-emergence action against VIOTR in %” value ([11]; dosage 80 g/ha) was 100%, the “Pre-emergence action against DIGSA in %” value ([12]; dosage 20 g/ha) was 100% and the “Pre-emergence action against DIGSA in %” value ([12]; dosage 80 g/ha) was 100%. For the same compound, the “Post-emergence action against ABUTH in %” value ([13]; dosage 5 g/ha) was 80%, the “Post-emergence action against ABUTH in %” value ([13]; dosage 20 g/ha) was 90% and the “Post-emergence action against ALOMY in %” value [23] was 90%. The “Post-emergence action at 20 g/ha against AMARE in %” value [14] was 90%, the “Post-emergence action at 20 g/ha against AVEFA in %” value [15] was 80% and the “Post-emergence action against ECHCG in %” value ([16]; dosage 5 g/ha) was 80%. For the same compound, the “Post-emergence action against ECHCG in %” value ([16]; dosage 20 g/ha) was 80%, the “Post-emergence action against MATIN in %” value ([17]; dosage 5 g/ha) was 80% and the “Post-emergence action against MATIN in %” value ([17]; dosage 20 g/ha) was 90%. For the same compound, the “Post-emergence action against PHBPU in %” value ([18]; dosage 5 g/ha) was 80%, the “Post-emergence action against PHBPU in %” value ([18]; dosage 20 g/ha) was 90% and the “Post-emergence action against SETVI in %” value ([19]; dosage 20 g/ha) was 80%. The “Post-emergence action against VERPE in %” value ([20]; 20 g/ha) was 80%, the “Post-emergence action against VIOTR in %” value ([21]; 5 g/ha) was 90% and the “Post-emergence action against VIOTR in %” value ([21]; 20 g/ha) was 100%. For the same compound, the “Post-emergence action against DIGSA in %” value ([22]; 5 g/ha) was 90% and the “Post-emergence action against DIGSA” value ([22]; 20 g/ha) was 100%.
